# According to patent US20220194952A1, “TETRAPYRROLIC CONJUGATES AND USES THEREOF FOR IMAGING” (Health Research, Inc., priority 2019, published 2022):
# Tests used:
# [1] = Singlet oxygen NIR emission in O2-saturated C6D6 versus C60 standard; type: physicochemical; conditions: O2-saturated C6D6, excitation 532 nm, emission at 1270 nm compared with C60
# Text: Excitation wavelength: 532 nm.
# After monitoring absorption characteristics in several organic and aqueous solvents, it was hypothesized that the aggregation state of 4 could have contributed in decreasing the fluorescence and singlet oxygen quantum yields. The quantum yield of singlet oxygen from 4 was ΦO2=0.31 determined by the comparison of the emission intensity at 1270 nm as compared with C60 used as a standard (ΦO2=0.96) (FIG. 5).
# [2] = Singlet oxygen phosphorescence at 1270 nm, methanol, pulsed laser 532 nm; type: physicochemical; conditions: near 5 μM, equi-absorbant at 532 nm, excited at 532 nm
# Experimental: The photosensitizers, e. g., HPPH (control), 2 and 4 were individually dissolved in methanol (concentration: 5 μM) in polystyrene cuvettes and excited at 532 nm using a pulsed laser. Phosphorescence of singlet oxygen was detected at 1270 nm.
# Before evaluating the imaging and photosensitizing potential of the chlorin 4 with extended ring system, its singlet oxygen producing ability was compared with the related chlorin 2. In brief, both compounds were individually dissolved in methanol in equi-absorbant (at 532 nm) concentrations near 5 μM and excited at 532 nm using a pulsed laser. The phosphorescence of singlet oxygen was detected at 1270 nm. From the results summarized in FIG. 4, it can be seen that compared to chlorin 2 with a five-member isocyclic ring, the related analog 4 with an extended ring system had remarkably lower singlet oxygen producing ability. Singlet oxygen quantum yields were φ=0.29 and φ=0.02 respectively, compared to HPPH φ=0.45.
# [3] = Nanosecond laser flash transient absorption of triplet excited state in PhCN; type: physicochemical
# Experimental: The decay time profiles at 580 nm in (b) argon- and (c) air-saturated PhCN. The single-exponential fitting curves are shown as gray lines.
# Singlet oxygen is generated by energy transfer from the triplet excited state of 4 to molecular oxygen (O2). […] The decay profile of T-T absorption was obeyed with the single exponential curve (FIG. 6b). The lifetime was determined to be τ=38 μs. […] The energy transfer rate constant was determined to be 1.4×10^9M^−1 s^−1, indicating the efficient energy transfer occurred between the triplet excited state of 4 and O2 to for singlet oxygen generation.
# Instrumentation: Measurement of fluorescence quantum yields were carried out on a Hamamatsu C9920-0X(PMA-12) U6039-05 fluorescence spectrofluorometer. Femtosecond laser flash photolysis was conducted using a Clark-MXR 2010 laser system and an optical detection system provided by Ultrafast Systems (Helios). The source for the pump and probe pulses were derived from the fundamental output of Clark laser system (775 nm, 1 mJ pulse-1 and fwhm=150 fs) at a repetition rate of 1 kHz. A second harmonic generator introduced in the path of the laser beam provided […] laser pulses for excitation. A 95% of the fundamental output of the laser was used to generate the second harmonic, while 5% of the deflected output was used for white light generation. Prior to generating the probe continuum, the laser pulse was fed to a delay line that provided an experimental time window of 1.6 ns with a maximum step resolution of 7 fs. The pump beam was attenuated at 5 μJ pulse-1 with a spot size of 2 mm diameter at the sample cell where it was merged with the white probe pulse in a close angle (<10°). […] The photodynamics were monitored by continuous exposure to a xenon lamp for visible region and halogen lamp for near-IR region as a probe light and a photomultiplier tube (Hamamatsu 2949) as a detector.
# Colon26 cells = assay: In vitro cytotoxicity (PDT) MTT assay; type: cell-based; conditions: variable drug concentrations, fixed light dose 1.0 J/cm^2 (FIG. 8A)
# Experimental: Drug concentrations were increased 10× (0.25 to 32.0 μM) and a significant cytotoxicity was observed only at high concentrations at the highest light dose.
# Assessment of cell growth following treatment with compound solutions alone and after light exposure was determined by a colorimetric assay that measured the reduction of yellow 3-(4,5-dimethythiazol-2-yl)-2,5-diphenyl tetrazolium bromide (MTT) by mitochondrial succinate dehydrogenase.
# Briefly cells were plated into 96 well plates, allowed to adhere to the plate and are treated with a range of compound concentrations for various lengths of time. The light source consisted of dye lasers (375; Spectra-Physics, Mt. View, Calif.) pumped by an argon-ion laser (either 171 or 2080; Spectra-Physics). The dye lasers were tuned to the appropriate wavelength for the compound being tested. Total light doses were ranged from 0.125 to 1.0 J/cm^2 at a fluence rate of 3.2 mW/cm^2. At 48 hours post PDT treatment, MTT was added. The solubilized formazan product was measured spectro-photometrically using a BIOTEK EL-800 plate reader. Data were processed using GEN5 software. A medium blank value was subtracted from all samples and Optical Density (O.D.) values of treated cells were divided by mean O.D. value of untreated cells for each light dose).
# Colon26 cells were plated and allowed to adhere for 4 hours, then the photosensitizer was added and incubated at 37° C. for 24 hours. Plates were irradiated with 789 nm light from a dye laser at 3.2 mW/cm^2 for a total dose of 0.25 to 1.0 Joule/cm^2.
# [4] = Absorbance (UV-VIS) in methanol; type: physicochemical; conditions: ε665 for 2 (peak 660 nm), ε785 for 4 (peak 785 nm)
# Experimental: Absorbance of 2 and 4 was measured using different concentrations in methanol on UV-VIS and indicates far-red peaks at 660 nm and 785 nm, with extinction coefficients ε665=47,500 L·mol^−1 cm^−1 and ε785=18,100 L·mol^−1 cm^−1 respectively.
# Chemistry Methods: All reactions were carried out in heat gun-dried glassware under an atmosphere of nitrogen and magnetic stirring. Thin layer chromatography (TLC) was done on pre-coated silica gel sheets (layer thickness 0.2 mm). Column chromatography was performed either using silica gel 60 (70-230 mesh) or neutral alumina grade III. In some cases preparative TLC was used for the purification of compounds. Purity of the compounds was ascertained by TLC and HPLC analysis. All compounds including the intermediates were >95% pure. UV-visible spectra were recorded on FT UV-visible spectrophotometer using methanol as a solvent. Mass spectrometry analyses were performed at the Mass Spectrometry Facility, University at Buffalo, N.Y. Compounds 1 and 2 were synthesized by following the methodologies previously described.
substance,measurement,setting,value
methyl 3-[1′-(m-iodobenzyloxy)ethyl]-3-devinyl-13^3-keto-13^2-methoxycyclohexene [Compound 4],quantum yield of singlet oxygen ΦO2,[1],0.31
same,Singlet oxygen quantum yield φ,[2],0.02
same,"energy transfer rate constant, triplet excited state to O2",[3]; PhCN,1.4e+09 M⁻¹ s⁻¹
same,triplet decay rate constant in the presence of dissolved O2,[3]; air-saturated PhCN,2.3e+06 s⁻¹
same,triplet excited state lifetime τ,"[3]; deaerated (argon-saturated) PhCN, T-T absorption decay at 580 nm",38 μs
same,in vitro cytotoxicity (in words),Colon26 cells,did not produce any significant cell kill
same,extinction coefficient at far-red absorbance peak,[4],"18,100 L·mol^−1 cm^−1"
